Patent US20010056085A1, “Methods of using vesicant drug formulations” (priority 1996, published 2001)
Values joined by “and” are separate entries in the source; they are usually repeats but may differ in a detail not shown here. Equal values may be shown once. Read-outs that look alike come from different tables or passages of the source.

Experiment: Half-life of ADR destruction by UVA light in the presence of test compounds (decrease in absorbance at 480 nm)
Type: physicochemical
[1] = UVA light, 100 μM test compound alone
[2] = UVA light, 100 μM test compound with 0.5 μM riboflavin

| Structure (SMILES) | Half-Life of ADR Destruction, 100 μM Test Compound [1] | Half-Life of ADR Destruction, 100 μM Test Compound and 0.5 μM Riboflavin [2] | other results |
| --- | --- | --- | --- |
| COc1ccc(C=CCO)cc1O [3-Hydroxy-4-Methoxy Cinnamyl Alcohol] | 50.2 min | 50.2 min |  |
| O=C(O)C(=O)c1c[nH]c2ccccc12 [3-Indole glyoxylic acid] |  | 43.0 min |  |
| O=C(O)CCCc1c[nH]c2ccccc12 [3-Indolebutyric acid] |  | 10.0 min |  |
| OCCc1c[nH]c2ccccc12 [3-Indoleethanol] |  | 8.14 min |  |
| O=C(O)C(O)Cc1c[nH]c2ccccc12 (stereo not drawn) [3-Indolelactic acid] |  | 6.40 min |  |
| COc1cccc(N)c1 [3-Methoxy Aniline] |  | 30.1 min |  |
| COc1cccc(C(=O)O)c1 [3-Methoxy Benzoic Acid] | 43.0 min |  |  |
| COc1cccc(C=CC(=O)O)c1 [3-Methoxy Cinnamic Acid] | 43.0 min | 21.5 min |  |
| COc1cccc(O)c1 [3-Methoxy Phenol] | 43.0 min |  |  |
| COc1cc(C=CC=O)ccc1O [3-Methoxy-4-Hydroxy Cinnamaldehyde] |  | 50.2 min |  |
| Cc1cccc(N)c1 [3-Methyl Aniline] |  |  | Half-Life of ADR Destruction, 100 μM Test Compound and 0.5 μM Riboflavin: 33.5 min |
| Cc1c[nH]c2ccccc12 [3-Methyl Indole] |  | 20.1 min |  |
| Nc1cccc(Oc2ccccc2)c1 [3-Phenoxyaniline] | 43.0 min | 12.5 min |  |
| OCCCc1ccccc1 [3-Phenyl-1-Propanol] | 50.2 min | 43.0 min |  |
| O=S(=O)=C1C=CC=C(S(=O)(=O)O)C1 [3-Sulfonyl-benzenesulfonic acid] |  | 50.2 min |  |
| COc1ccc(C(=O)c2cccc(C(=O)O)c2)cc1OC [3′,4′-Dimethoxy-3-benzophenonecarboxylic acid] | 50.2 min | 43.0 min |  |
| CC(=O)c1cccc(O)c1 [3′-Hydroxyacetophenone] | 75.3 min |  |  |
| COc1cccc(C(C)=O)c1 [3′-Methoxyacetophenone] | 33.4 min | 33.4 min |  |
| O=S(=O)(c1ccc(O)cc1)c1ccc(O)cc1 [4,4-Dihydroxy Phenylsulfone] | 43.0 min | 43.0 min |  |
| Nc1ccc(C(=O)c2ccc(N)cc2)cc1 [4,4′-Diamino-benzophenone] |  | 27.4 min |  |
| c1cc2c([nH]1)CCCC2 [4,5,6,7-tetrahydroindole] |  | 14.3 min |  |
| O=C(O)CCCc1ccc2ccccc2c1 [4-(2-Naphthyl)butyric acid] | 43.0 min | 15.1 min |  |
| COc1ccc(CCCC(=O)O)cc1 [4-(4-Methoxyphenyl) Butyric Acid] |  | 10.8 min |  |

| Structure (SMILES) | Half-Life of ADR Destruction, 100 μM Test Compound [1] | Half-Life of ADR Destruction, 100 μM Test Compound and 0.5 μM Riboflavin [2] | other results |
| --- | --- | --- | --- |
| COc1ccc(CCCCO)cc1 [4-(4-Methoxyphenyl)-1-Butanol] | 43.0 min | 3.46 min |  |
| CN(C)c1ccc(C(=O)O)cc1 [4-(Dimethylamino) Benzoic Acid] |  | 75.3 min |  |
| CN(C)c1ccc(CN)cc1 [4-(Dimethylamino) Benzylamine] |  | 43.0 min |  |
| CN(C)c1ccc(CC(=O)O)cc1 [4-(Dimethylamino) Phenylacetic acid] |  | 100.3 min |  |
| CNc1ccc(C(=O)O)cc1 [4-(Methylamino) Benzoic Acid] |  | 75.3 min |  |
| Nc1ccc(OC(F)(F)F)cc1 [4-(Trifluoromethyoxy) Aniline] |  |  | Half-Life of ADR Destruction, 100 μM Test Compound and 0.5 μM Riboflavin: 43.0 min |
| Nc1ccc(S(N)(=O)=O)cc1 [4-Amino Benzenesulfonamide] |  |  | Half-Life of ADR Destruction, 100 μM Test Compound and 0.5 μM Riboflavin: 25.1 min |
| Nc1ccc(S(=O)(=O)O)cc1 [4-Amino Benzenesulfonic acid] |  | 18.8 min |  |
| Nc1ccc(C(=O)O)cc1 [4-Amino Benzoic Acid] |  | 20.6 ± 9.7 min |  |
| Nc1ccc(CO)cc1 [4-Amino Benzyl Alcohol] |  | 27.4 min |  |
| NCc1ccc(N)cc1 [4-Amino Benzylamine] |  | 7.34 ± 1.13 min |  |
| Nc1ccc(C=CC(=O)O)cc1 [4-Amino Cinnamic Acid] | 50.2 min | 16.7 min |  |
| Nc1ccc(CC(=O)O)cc1 [4-Amino Phenylacetic acid] | 50.2 min | 4.63 min |  |
| Nc1ccc(C[C@H](N)C(=O)O)cc1 [4-Amino Phenylalanine] | 55.2 ± 7.1 min | 7.65 ± 5.46 min |  |
| Nc1ccc(CCO)cc1 [4-Amino Phenylethyl Alcohol] |  | 10.8 min |  |
| Nc1ccc(C(=O)O)cc1O [4-Amino-3-Hydroxy Benzoic Acid] |  | 75.3 min |  |
| Cc1cc(C(=O)O)ccc1N [4-Amino-3-Methyl Benzoic Acid] |  | 15.8 min |  |
| NC(=O)c1ccc(N)cc1 [4-Aminobenzamide] |  | 13.4 ± 4.7 min |  |
| Nc1ccc(C(=O)c2ccccc2)cc1 [4-Aminobenzophenone] |  | 21.5 min |  |
| Nc1ccc(Cc2ccccc2)cc1 [4-Aminodiphenylmethane] | 43.0 min | 5.57 min |  |
| NCc1ccc(CN)cc1 [4-Aminomethyl Benzylamine] |  | 50.2 min and 33.5 min |  |
| O=C1c2ccccc2-c2ncccc21 [4-Aza-9-fluorenone] |  | 50.2 min |  |
| O=C(O)c1ccc(C(=O)c2ccccc2)cc1 [4-Benzophenone-carboxylic acid] |  |  | Half-Life of ADR Destruction, 100 μM Test Compound: 10.0 min; Half-Life of ADR Destruction, 100 μM Test Compound and 0.5 μM Riboflavin: 7.72 min |

| Structure (SMILES) | Half-Life of ADR Destruction, 100 μM Test Compound [1] | Half-Life of ADR Destruction, 100 μM Test Compound and 0.5 μM Riboflavin [2] | other results |
| --- | --- | --- | --- |
| O=C(c1ccccc1)c1ccncc1 [4-Benzoylpyridine] | 17.2 ± 1.9 min | 11.6 min |  |
| Nc1ccc(OCc2ccccc2)cc1 [4-Benzyloxyaniline] | 100.3 min | 100.3 min |  |
| CCCCc1ccc(N)cc1 [4-Butyl Anilne] |  |  | Half-Life of ADR Destruction, 100 μM Test Compound and 0.5 μM Riboflavin: 7.17 min |
| O=C(O)c1cc(=O)c2ccccc2o1 [4-Chromone-2-carboxylic acid] | 15.8 min | 14.3 min |  |
| CCc1ccc(N)cc1 [4-Ethyl Aniline] |  | 10.4 min |  |
| O=C(O)c1cccc2c1-c1ccccc1C2 [4-Fluorene Carboxylic acid] | 30.1 min | 18.8 min |  |
| Nc1ccc(F)cc1 [4-Fluoro Aniline] |  | 12.0 min |  |
| CCCCCCc1ccc(N)cc1 [4-Hexyl Aniline] |  | 5.28 min |  |
| O=C(O)c1ccc(O)cc1 [4-Hydroxy Benzoic Acid] |  | 100.3 min |  |
| O=C(O)C=Cc1ccc(O)cc1 [4-Hydroxy Cinnamic Acid] | 50.2 min |  |  |
| NCCc1ccc(O)cc1 [4-Hydroxy Phenethylamine (Tyramine), 4-Hydroxy Phenethylamine] |  | 33.5 min |  |
| O=C(O)Cc1ccc(O)cc1 [4-Hydroxy Phenylacetic Acid] |  | 75.3 min |  |
| OCCc1ccc(O)cc1 [4-Hydroxy Phenylethyl Alcohol] |  | 50.2 min |  |
| NC(C(=O)O)c1ccc(O)cc1 (stereo not drawn) [4-Hydroxy Phenylglycine] |  | 24.2 ± 19.0 min |  |
| NCC(O)c1ccc(O)cc1 (stereo not drawn) [4-Hydroxy-β-hydroxy Phenethylamine] |  | 50.2 min |  |
| COc1ccc(C(=O)O)cc1 [4-Methoxy Benzoic Acid] |  | 33.5 min |  |
| COc1ccc(C=CC=O)cc1 [4-Methoxy Cinnamaldehyde] |  | 50.2 min |  |
| COc1ccc(C=CC(=O)O)cc1 [4-Methoxy Cinnamic Acid] | 75.3 min | 5.90 min |  |
| COc1ccc(C=CCO)cc1 [4-Methoxy Cinnamyl Alcohol] | 50.2 min | 9.12 min |  |
| COc1ccc(O)cc1 [4-Methoxy Phenol] | 50.2 min | 43.0 min |  |
| COc1ccc(CC(=O)O)cc1 [4-Methoxy Phenylacetic Acid] | 50.2 min | 30.1 min |  |
| COc1ccc(C[C@H](N)C(=O)O)cc1 [4-Methoxy Phenylalanine] |  | 15.1 min |  |
